# Reference: paper PMC3954451 (Journal of Medicinal Chemistry, 2014)
# Tests used:
# [1] = cited from earlier work
# Caco-2 cells [2] = conditions: cited from earlier work
# Caco-2 cells [3] = conditions: 10 μM, 2 h
Compound,"membrane permeability in the apical to basolateral (A→B) direction, in words (Caco-2 cells [3])",also measured
Nc1ccccn1 [2-aminopyridine],,pKa [1]: 7.1
Cl.Cl.N=C(Nc1cccc(CNCCc2cccc(F)c2)c1)c1cccs1 [Compound 3],,"Caco-2 permeability, in words (Caco-2 cells [2]): poor"
"Cl.Cl.Nc1ccc2ccc(CCNCCc3cccc(F)c3)cc2n1 [Compound 7, 7-[(3-Fluorophenethylamino)ethyl]quinolin-2-amine Dihydrochloride]",good,
"Cl.Cl.Cl.Nc1ccc2ccc(CCNCCc3cccc(Cl)c3)cc2n1 [Compound 15, 7-[(3-Chlorophenethylamino)ethyl]quinolin-2-amine Dihydrochloride]",good,
